This note sets out measurements from the OPERA property sets (Mansouri et al. 2018).

The compound `O=C(c1ccc(O)c(O)c1)c1c(O)cc(O)cc1O` returned a melting point of 222 °C.

`C[C@@H]1CCC[C@H]1O` yielded a boiling point of 150 °C.

With `Sc1c(Cl)c(Cl)c(Cl)c(Cl)c1Cl`, the melting point came to 232 °C.

Compound `NCCO.O=C(Nc1ccc([N+](=O)[O-])cc1Cl)c1cc(Cl)ccc1O` yielded a melting point of 216 °C.

Consider `O=C1OC2(OC=C(c3ccccc3)C2=O)c2ccccc21` (configuration not stated), for which the melting point stood at 154 °C.

With `ON=C(C1CC1)C1CC1`, the melting point was 76.5 °C.

On to `CC(C)(C)c1cccc(C(C)(C)C)c1O`, for which the boiling point turned out to be 253 °C, the melting point came to 39 °C and the ready biodegradability entry was “not readily biodegradable”.

The compound `Clc1cc2cc(Cl)c(Cl)cc2cc1Cl` yielded a log10 Koa of 8.45.

For the compound `COc1cc(OC)nc(NC(=O)NS(=O)(=O)c2ncccc2C(F)(F)F)n1`, the melting point came out at 180 °C.

`O=C(O)c1cc(I)c(O)c(I)c1` yielded a melting point of 237 °C.

`COc1cc([C@@H]2c3cc4c(c(O)c3C[C@H]3COC(=O)[C@@H]32)OCO4)cc(OC)c1OC` returned a melting point of 234 °C.

Take `COc1cccc(C=O)c1`: the boiling point came out at 231 °C and the ready biodegradability result is “readily biodegradable”.

Regarding `CC(C)Nc1nc(N)nc(Cl)n1`, the melting point turned out to be 133 °C.

`CCOC(=O)c1ccc(F)cc1`: the boiling point is 210 °C and the melting point stood at 26 °C.

Consider `O=C1C(Br)=CC(=NCl)C=C1Br`, for which the melting point came out at 83 °C.

In turn, `COc1cccc(OC)c1C(C)=O` displayed a melting point of 69 °C.

Consider `O=C1[C@@H]2C[C@H](CN3CCCC[C@@H]23)[C@H]2CCCCN12`, for which the melting point came to 111 °C.

For the compound `CCOC(=O)CC(=O)C(F)(F)F`, the boiling point amounted to 133 °C.

As for `Fc1cc(F)c(F)cc1F`, the boiling point worked out at 90.2 °C, the log10 vapour pressure (mmHg) was 1.75 and the melting point turned out to be 4.5 °C.

`C#CC(C)(C)NC(=O)c1ccc(Br)cc1`: the log10 Koc (L/kg) was 2.01.

Compound `CC(C)(O)Cc1ccccc1` registered a boiling point of 215 °C and a melting point of 24 °C.

For the compound `Cc1cc(C)c(O)cc1C`, the boiling point was 232 °C, the log10 vapour pressure (mmHg) was -2.17 and the melting point was 72 °C.

As for `N#CO`, the log10 vapour pressure (mmHg) turned out to be 2.91 and the melting point is -86 °C.

On to `CN=Cc1ccccc1`, for which the boiling point was 185 °C.

As for `O=S(=O)(Oc1ccc(Cl)cc1Cl)c1ccccc1`, the melting point came out at 45.5 °C.

For `CCC(=O)c1cc(O)ccc1O`, the melting point worked out at 96.5 °C.

`CCCN(CCC)C(=O)SCc1ccccc1` had a log10 vapour pressure (mmHg) of -6.29.

For `C=CCCC(=C)C`, the boiling point stood at 88.1 °C and the melting point is -129 °C.

Compound `CC(=O)Cl` gave a boiling point of 50.7 °C, a log10 vapour pressure (mmHg) of 2.46 and a melting point of -113 °C.

Take `CC(C)CCC(C)O` (configuration not stated): the boiling point came to 151 °C and the log10 vapour pressure (mmHg) was 0.307.

On to `Nc1ccccc1`, for which the boiling point amounted to 184 °C, the log10 Henry constant (atm·m³/mol) was -5.69, the log10 Koc (L/kg) came out at 1.6 and the log10 vapour pressure (mmHg) is -0.31. Moreover, the melting point was -6 °C and the ready biodegradability entry is listed as “readily biodegradable”.

With `CN(N)c1ccccc1`, the boiling point stood at 228 °C.

Compound `O=S(=O)(F)Cc1ccccc1` had a melting point of 93 °C.

`C[C@]12C=CC(=O)C=C1CC[C@@H]1[C@@H]2CC[C@]2(C)OC(=O)CC[C@@H]12`: the melting point worked out at 218 °C.

In the case of `C[Si]1(C)O[Si](C)(C)O[Si](C)(C)O[Si](C)(C)O[Si](C)(C)O[Si](C)(C)O1`, the boiling point was 245 °C, the log10 vapour pressure (mmHg) was -1.65 and the melting point was -3 °C.

`CC(C)c1ccc(Cl)cc1` gave a boiling point of 198 °C and a melting point of -12.3 °C.

Regarding `CC1(C)CC(O)CC(C)(C)N1`, the ready biodegradability result is recorded as “not readily biodegradable”.

In turn, `CCCC/C=C/CCCC` returned a boiling point of 171 °C and a melting point of -73 °C.

The compound `c1ccc2c(c1)CCc1ccccc1-2` registered a log10 vapour pressure (mmHg) of -3.22 and a melting point of 34.5 °C.

For `CCN(CC)C(C)CN1c2ccccc2Sc2ccccc21` (configuration not stated), the melting point was found to be 64.5 °C.

As to `Cc1ccc(O)c2ccccc12`, the melting point was determined as 85.8 °C.

`NCCS(=O)(=O)O` registered a melting point of 328 °C.

Take `CCOCCN`: the boiling point was 108 °C.

In turn, `CN(C)CCCN1c2ccccc2S(=O)c2ccc(Cl)cc21` (configuration not stated) had a melting point of 115 °C.

`CCCCCCCCCCCCCCCCCCCCCC(=O)O` yielded a melting point of 81 °C.

On to `CC(O)C(C)Cl` (configuration not stated), for which the boiling point was 139 °C.

Compound `CCn1ccc(NS(=O)(=O)c2ccc(N)cc2)nc1=O` came in with a melting point of 166 °C.

In turn, `CCCCOCCOC(=O)CCCOc1ccc(Cl)cc1Cl` came in with a log10 Koc (L/kg) of 2.7.

Regarding `CCOc1ccccc1O`, the boiling point was 217 °C and the melting point came out at 29 °C.

The compound `O=C1CCCN1CCO` gave a boiling point of 295 °C and a melting point of 20 °C.

The compound `CC(C)CC(=O)OCc1ccccc1` showed a boiling point of 245 °C.

`CCCC(C)(CC)CC` showed a boiling point of 141 °C.

Compound `O=C(Cl)OCCOCCOC(=O)Cl` registered a boiling point of 229 °C and a log10 vapour pressure (mmHg) of -2.83.

As to `C1CCCCNCCC1`, the melting point is -19 °C.

`CC(C)(C)C(=O)C(Oc1ccc(Cl)cc1)n1cncn1` (configuration not stated) came in with a log10 Koc (L/kg) of 2.71, a log10 vapour pressure (mmHg) of -7.82 and a melting point of 82 °C.

Turning to `CCC(C)CCCC(C)C` (configuration not stated), the boiling point was found to be 160 °C and the log10 vapour pressure (mmHg) amounted to 0.469.

In turn, `CNC(=O)CSP(=O)(OC)OC` displayed a log10 vapour pressure (mmHg) of -4.61 and a melting point of -28 °C.

As to `O=[N+]([O-])c1c(Cl)cc(Cl)cc1Cl`, the melting point is 72 °C and the ready biodegradability result is reported as “not readily biodegradable”.

Consider `Cc1ccc(N)cc1Br`, for which the boiling point is 256 °C and the melting point amounted to 26 °C.
